Series [1] relates to Puccinia recondita f. Sp. Tritici. As to the kind of experiment: Puccinia recondita f. sp. tritici / wheat / leaf disc preventative (brown rust). Type of series: in vivo. The conditions noted are these: foliar, 200 ppm in the applied formulation, wheat leaf segments cv. Kanzler, preventative (inoculated 1 day after application), compared to untreated control, read-out: disease control. The protocol: Leaf disks or leaf segments of various plant species are cut from plants grown in a greenhouse. The cut leaf disks or segments are placed in multiwell plates (24-well format) onto water agar. The leaf disks are sprayed with a test solution before (preventative) or after (curative) inoculation. Compounds to be tested are prepared as DMSO solutions (max. 10 mg/ml) which are diluted to the appropriate concentration with 0.025% Tween20 just before spraying. The inoculated leaf disks or segments are incubated under defined conditions (temperature, relative humidity, light, etc.) according to the respective test system. A single evaluation of disease level is carried out 3 to 14 days after inoculation, depending on the pathosystem. Percent disease control relative to the untreated check leaf disks or segments is then calculated. Wheat leaf segments cv. Kanzler were placed on agar in multiwell plates (24-well format) and sprayed with the formulated test compound diluted in water. The leaf disks were inoculated with a spore suspension of the fungus 1 day after application. The inoculated leaf segments were incubated at 19° C. and 75% relative humidity (rh) under a light regime of 12 hours light/12 hours darkness in a climate cabinet and the activity of a compound was assessed as percent disease control compared to untreated when an appropriate level of disease damage appears in untreated check leaf segments (7 to 9 days after application).

Series [2] has the same test system. The series can be described thus: Puccinia recondita f. sp. tritici / wheat / leaf disc curative (brown rust). As to conditions: foliar, 24 h, 200 ppm in the applied formulation, wheat leaf segments cv. Kanzler, curative (applied 1 day after inoculation), compared to untreated control, read-out: disease control. Type of series: in vivo. As for the experimental part:
Leaf disks or leaf segments of various plant species are cut from plants grown in a greenhouse. The cut leaf disks or segments are placed in multiwell plates (24-well format) onto water agar. The leaf disks are sprayed with a test solution before (preventative) or after (curative) inoculation. Compounds to be tested are prepared as DMSO solutions (max. 10 mg/ml) which are diluted to the appropriate concentration with 0.025% Tween20 just before spraying. The inoculated leaf disks or segments are incubated under defined conditions (temperature, relative humidity, light, etc.) according to the respective test system. A single evaluation of disease level is carried out 3 to 14 days after inoculation, depending on the pathosystem. Percent disease control relative to the untreated check leaf disks or segments is then calculated. Wheat leaf segments cv. Kanzler are placed on agar in multiwell plates (24-well format). The leaf segments are then inoculated with a spore suspension of the fungus. Plates were stored in darkness at 19° C. and 75% relative humidity. The formulated test compound diluted in water was applied 1 day after inoculation. The leaf segments were incubated at 19° C. and 75% relative humidity under a light regime of 12 hours light/12 hours darkness in a climate cabinet and the activity of a compound was assessed as percent disease control compared to untreated when an appropriate level of disease damage appears in untreated check leaf segments (6 to 8 days after application).

Another series deals with Phakopsora pachyrhizi. As to the kind of experiment: Phakopsora pachyrhizi / soybean / leaf disc preventative (Asian soybean rust). The conditions noted are these: foliar, 200 ppm in the applied formulation, soybean leaf disks, preventative (inoculated 1 day after application), compared to untreated control, read-out: disease control. Type of series: in vivo. As for the experimental part:
Leaf disks or leaf segments of various plant species are cut from plants grown in a greenhouse. The cut leaf disks or segments are placed in multiwell plates (24-well format) onto water agar. The leaf disks are sprayed with a test solution before (preventative) or after (curative) inoculation. Compounds to be tested are prepared as DMSO solutions (max. 10 mg/ml) which are diluted to the appropriate concentration with 0.025% Tween20 just before spraying. The inoculated leaf disks or segments are incubated under defined conditions (temperature, relative humidity, light, etc.) according to the respective test system. A single evaluation of disease level is carried out 3 to 14 days after inoculation, depending on the pathosystem. Percent disease control relative to the untreated check leaf disks or segments is then calculated. Soybean leaf disks are placed on water agar in multiwell plates (24-well format) and sprayed with the formulated test compound diluted in water. One day after application leaf discs are inoculated by spraying a spore suspension on the lower leaf surface. After an incubation period in a climate cabinet of 24-36 hours in darkness at 20° C. and 75% rh leaf disc are kept at 20° C. with 12 h light/day and 75% rh. The activity of a compound is assessed as percent disease control compared to untreated when an appropriate level of disease damage appears in untreated check leaf disks (12 to 14 days after application).

The subject of series [3] is Glomerella laqenarium (Colletotrichum laqenarium). The series can be described thus: Glomerella lagenarium liquid culture / cucumber / preventative (anthracnose). Type of series: cell-based. The conditions noted are these: 20 ppm in the applied formulation, liquid culture in PDB, growth inhibition measured photometrically 3 to 4 days after application, compared to untreated control, read-out: disease control. The protocol: Mycelia fragments or conidia suspensions of a fungus prepared either freshly from liquid cultures of the fungus or from cryogenic storage, are directly mixed into nutrient broth. DMSO solutions of the test compound (max. 10 mg/ml) are diluted with 0.025% Tween20 by a factor of 50 and 10 μl of this solution is pipetted into a microtiter plate (96-well format). The nutrient broth containing the fungal spores/mycelia fragments is then added to give an end concentration of the tested compound. The test plates are incubated in the dark at 24° C. and 96% relative humidity. The inhibition of fungal growth is determined photometrically after 2 to 7 days, depending on the pathosystem, and percent antifungal activity relative to the untreated check is calculated. Conidia of the fungus from cryogenic storage are directly mixed into nutrient broth (PDB—potato dextrose broth). After placing a (DMSO) solution of test compound into a microtiter plate (96-well format), the nutrient broth containing the fungal spores is added. The test plates are incubated at 24° C. and the inhibition of growth is measured photometrically 3 to 4 days after application.

A word on the melting point: it is the temperature of the solid-liquid transition. In turn, `Cc1cc(OCc2ccc(-c3noc(C(F)(F)F)n3)cc2)no1` [Compound 1.5, 3-[4-[(5-methylisoxazol-3-yl)oxymethyl]phenyl]-5-(trifluoromethyl)-1,2,4-oxadiazole] registered a melting point of 81.2 to 82.6 °C. Further, the pest or weed control at 200 ppm in series [1] was at least 80%. The pest or weed control at 200 ppm in series [2] was at least 80%. Besides, in the series with Phakopsora pachyrhizi, the pest or weed control at 200 ppm is at least 80%. For the same compound, the inhibition of growth at 20 ppm in series [3] is at least 80%.
On to `Cn1nnnc1OCc1ccc(-c2noc(C(F)(F)F)n2)cc1` [Compound 1.8, 3-[4-[(1-methyltetrazol-5-yl)oxymethyl]phenyl]-5-(trifluoromethyl)-1,2,4-oxadiazole], for which the melting point was 113.3 to 114.2 °C. The pest or weed control at 200 ppm in series [1] was at least 80%. Moreover, the pest or weed control at 200 ppm in series [2] is at least 80%. In addition, the pest or weed control at 200 ppm in the series with Phakopsora pachyrhizi was at least 80%. Further, the inhibition of growth at 20 ppm in series [3] was at least 80%.
`Fc1ccccc1OCc1ccc(-c2noc(C(F)(F)F)n2)cc1` [Compound 1.11, 3-[4-[(2-fluorophenoxy)methyl]phenyl]-5-(trifluoromethyl)-1,2,4-oxadiazole] had a melting point of 108 to 110 °C. The pest or weed control at 200 ppm in series [1] is at least 80%. Further, the pest or weed control at 200 ppm in series [2] was at least 80%. Also, the pest or weed control at 200 ppm with Phakopsora pachyrhizi is at least 80%. Besides, the inhibition of growth at 20 ppm in series [3] was at least 80%.
As to `Cn1ccc(OCc2ccc(-c3noc(C(F)(F)F)n3)cc2)n1` [Compound 1.17, 3-[4-[(1-methylpyrazol-3-yl)oxymethyl]phenyl]-5-(trifluoromethyl)-1,2,4-oxadiazole], the melting point was 84.9 to 87.8 °C. The pest or weed control at 200 ppm in series [1] was at least 80%. Besides, the pest or weed control at 200 ppm in series [2] was at least 80%. For the same compound, the pest or weed control at 200 ppm in the series with Phakopsora pachyrhizi was at least 80%. Further, the inhibition of growth at 20 ppm in series [3] was at least 80%.
Compound `CC(=O)n1ccc(OCc2ccc(-c3noc(C(F)(F)F)n3)cc2)n1` [Compound 1.18, 1-[3-[[4-[5-(trifluoromethyl)-1,2,4-oxadiazol-3-yl]phenyl]methoxy]pyrazol-1-yl]ethanone] yielded a melting point of 86.1 to 87.3 °C. For the same compound, in series [1], the pest or weed control at 200 ppm was at least 80%. For the same compound, in series [2], the pest or weed control at 200 ppm was at least 80%. Besides, in the series on Phakopsora pachyrhizi, the pest or weed control at 200 ppm is at least 80%. Also, the inhibition of growth at 20 ppm in series [3] is at least 80%.
As for `Cc1cc(OCc2ccc(-c3noc(C(F)(F)F)n3)cc2)n[nH]1` [Compound 1.19, 3-[4-[(5-methyl-1H-pyrazol-3-yl)oxymethyl]phenyl]-5-(trifluoromethyl)-1,2,4-oxadiazole], the melting point was 137.4 to 141.8 °C. Further, the pest or weed control at 200 ppm in series [1] was at least 80%. Moreover, the pest or weed control at 200 ppm in series [2] is at least 80%. Also, the pest or weed control at 200 ppm in the series with Phakopsora pachyrhizi was at least 80%. For the same compound, in series [3], the inhibition of growth at 20 ppm was at least 80%.
As for `CC(Oc1nnnn1C)c1ccc(-c2noc(C(F)(F)F)n2)cc1` (stereo not drawn) [Compound 1.22, 3-[4-[1-(1-methyltetrazol-5-yl)oxyethyl]phenyl]-5-(trifluoromethyl)-1,2,4-oxadiazole], the melting point was in the range of 104 to 106 °C. Moreover, the pest or weed control at 200 ppm in series [1] was at least 80%. Moreover, the pest or weed control at 200 ppm in series [2] is at least 80%. For the same compound, the pest or weed control at 200 ppm in the series with Phakopsora pachyrhizi was at least 80%. For the same compound, in series [3], the inhibition of growth at 20 ppm is at least 80%.
Consider `CN(C)C(=O)OCc1ccc(-c2noc(C(F)(F)F)n2)cc1` [Compound 3.1, [4-[5-(trifluoromethyl)-1,2,4-oxadiazol-3-yl]phenyl]methyl N,N-dimethylcarbamate], for which the melting point is 95 to 97 °C. Also, the pest or weed control at 200 ppm in series [1] was at least 80%. In series [2], the pest or weed control at 200 ppm was at least 80%. The pest or weed control at 200 ppm in the series with Phakopsora pachyrhizi is at least 80%. The inhibition of growth at 20 ppm in series [3] was at least 80%.
`C/C(=N/OCc1ccc(-c2noc(C(F)(F)F)n2)cc1)n1ccnc1` [Compound 4.2, (Z)-1-imidazol-1-yl-N-[[4-[5-(trifluoromethyl)-1,2,4-oxadiazol-3-yl]phenyl]methoxy]ethanimine]: the melting point lay in the range of 51 to 53 °C. Moreover, the pest or weed control at 200 ppm in series [1] was at least 80%. Further, in series [2], the pest or weed control at 200 ppm was at least 80%. In addition, the pest or weed control at 200 ppm in the series with Phakopsora pachyrhizi was at least 80%. Also, the inhibition of growth at 20 ppm in series [3] was at least 80%.

The values are drawn from US20190345150A1, “MICROBIOCIDAL OXADIAZOLE DERIVATIVES” (SYNGENTA PARTICIPATIONS AG, priority 2016, published 2019).
